Assay results: US9409952B2, “Peptide-compound cyclization method” (Chugai Seiyaku Kabushiki Kaisha, priority 2011, dated 2016)
Read-outs that look alike come from different tables or passages of the source. Starred links: 1 amine or outer side, 2 acyl side, 3 side chain; linkers in the order of their positions; H or OH if unused. Positions of bridges follow the written chain, without caps; N, C: chain ends. Non-standard residues stand in square brackets, D forms with d. Residues, ends and D or L forms follow the SMILES beside them. ξ: configuration not given here. *: point of attachment. Phe(3-(CH2)4CO) = O=C([C@H](Cc1cccc(CCCCC(=O)[*:3])c1)N[*:1])[*:2]; NEtPhe = CCN[C@@H](Cc1ccccc1)C(=O)O; NMeF = CN[C@@H](Cc1ccccc1)C(=O)O; NMeI = CC[C@H](C)[C@H](NC)C(=O)O; hPhe = N[C@@H](CCc1ccccc1)C(=O)O; NMeL = CN[C@@H](CC(C)C)C(=O)O; NMeV = CN[C@H](C(=O)O)C(C)C; NMeA = CN[C@@H](C)C(=O)O; Piperidide = C1CCN(*)CC1; dNMeA = CN[C@H](C)C(=O)O; Aze = O=C(O)[C@@H]1CCN1; ξL = CC(C)CC(N)C(=O)O; Sar = CNCC(=O)O; tBu = CC(C)(C)*

Experiment: Metabolic stability in human hepatic microsome
Type: in vitro ADME
[1] = microsomes, pH 7.4, human hepatic microsome, NADPH(+), read-out: CL NADPH(+)
[2] = human, microsomes, pH 7.4, CL NADPH(+)

| Structure (SMILES) | microsomal CLint at 1 uM [1] [µL/min/mg] | further results |
| --- | --- | --- |
| CC[C@H](C)[C@H]1C(=O)NCC(=O)N(C)[C@@H](CC(C)C)C(=O)N[C@@H]([C@@H](C)O)C(=O)N2CCC[C@H]2C(=O)N[C@@H](Cc2ccccc2)C(=O)N[C@H](C(=O)N2CCCCC2)CC(=O)N(C)[C@@H](C)C(=O)N[C@@H](Cc2ccccc2)C(=O)N2CC[C@H]2C(=O)N[C@@H](CC(C)C)C(=O)N1C [DP-552] ([NMeA]F[Aze]L[NMeI]G[NMeL]TPFD-Piperidide; lactam N-11) | 157 | – |
| CC[C@H](C)[C@H]1C(=O)N[C@@H](COC(C)(C)C)C(=O)N(C)[C@@H](Cc2ccccc2)C(=O)N(C)[C@@H](C(C)C)C(=O)N[C@H](C(=O)N2CCCCC2)Cc2cccc(c2)CCCCC(=O)N(C)[C@@H](Cc2ccccc2)C(=O)N[C@@H](CC(C)C)C(=O)N(C)[C@@H](CC(C)C)C(=O)N[C@@H]([C@@H](C)O)C(=O)N(C)CC(=O)N1C [DP-853] ([NMeF]L[NMeL]T[Sar][NMeI]S(tBu)[NMeF][NMeV][Phe(3-(CH2)4CO)]-Piperidide; lactam N-10) | 120 | – |
| CC[C@H](C)[C@H](NC(=O)[C@H](CC(C)C)N(C)C(=O)[C@@H](NC(=O)[C@@H]1CC(=O)N[C@@H](C)C(=O)N[C@@H](CC(C)C)C(=O)N[C@@H]([C@@H](C)O)C(=O)N(C)[C@@H](Cc2ccccc2)C(=O)N[C@@H](Cc2ccccc2)C(=O)N(C)[C@@H](C)C(=O)N1)C(C)C)C(=O)N1CCCCC1 [DP-46] (ALT[NMeF]F[NMeA]DV[NMeL]I-Piperidide; lactam N-7) | – | microsomal CLint at 1 uM [2]: 249 µL/min/mg |
| C=C1CCC(=O)N[C@@H](C(C)C)C(=O)N(C)[C@@H](C)C(=O)N(C)[C@@H](CC(C)C)C(=O)N[C@@H](CC(C)C)C(=O)N[C@@H](Cc2ccccc2)C(=O)N(C)[C@@H](Cc2ccccc2)C(=O)N[C@@H]([C@@H](C)CC)C(=O)N2CCC[C@H]2C(=O)N[C@@H]([C@@H](C)O)C(=O)N(C)[C@@H](CC(C)C)C(=O)N[C@H](C(=O)N2CCCCC2)Cc2cccc1c2 [DP-884] | 64 | – |
| CC[C@H](C)[C@@H]1NC(=O)[C@H](Cc2ccccc2)N(C)C(=O)[C@H](CCc2ccccc2)NC(=O)[C@H](C(C)C)N(C)C(=O)[C@H](CC(C)C)N(C)C(=O)[C@H](CC(C)C)NC(=O)[C@@H](C)NC(=O)C[C@@H](C(=O)N2CCCCC2)NC(=O)[C@H]([C@@H](C)O)NC(=O)[C@H](C)NC(=O)[C@H](C)N(C)C1=O [DP-730] ([dA]L[NMeL][NMeV][hPhe][NMeF]I[NMeA]ATD-Piperidide; lactam N-11) | 50 | – |
| CC[C@H](C)[C@H](NC(=O)[C@H](CC(C)C)N(C)C(=O)[C@H](CC(C)C)NC(=O)[C@@H]1CC(=O)N[C@@H](C)C(=O)N(C)[C@@H](Cc2ccccc2)C(=O)N(C)[C@@H](CC(C)C)C(=O)N(C)[C@@H](CC(C)C)C(=O)N[C@@H](Cc2ccccc2)C(=O)N[C@@H]([C@@H](C)O)C(=O)N[C@@H](C(C)C)C(=O)N1)C(=O)N1CCCCC1 [DP-934] (A[NMeF][NMeL][NMeL]FTVDL[NMeL]I-Piperidide; lactam N-8) | 143 | – |
| C=C1CCC(=O)N(C)[C@@H](Cc2ccccc2)C(=O)N(C)[C@@H](CC(C)C)C(=O)N[C@@H]([C@@H](C)CC)C(=O)N(C)[C@@H](C)C(=O)N(C)[C@@H](Cc2ccccc2)C(=O)N[C@@H]([C@@H](C)O)C(=O)N(C)[C@@H](C)C(=O)N(C)[C@@H](CC(C)C)C(=O)N[C@H](C(=O)N2CCCCC2)Cc2ccc1cc2 [DP-833] | 427 | – |
| CC(C)C[C@H]1C(=O)N(C)[C@@H](Cc2ccccc2)C(=O)N[C@@H](C)C(=O)N2CCC[C@H]2C(=O)N(C)[C@@H](CC(C)C)C(=O)N(C)[C@@H](Cc2ccccc2)C(=O)N(C)[C@@H](C(C)C)C(=O)N[C@H](C(=O)N2CCCCC2)CC(=O)N[C@H](C)C(=O)N[C@@H]([C@@H](C)O)C(=O)N(C)CC(=O)N1C [DP-141] ([dA]T[Sar][NMeL][NMeF]AP[NMeL][NMeF][NMeV]D-Piperidide; lactam N-11) | 77 | – |
| CC[C@H](C)[C@H]1C(=O)N(C)[C@@H](CC(C)C)C(=O)N[C@H](C(=O)N2CCCCC2)CC(=O)N(C)CC(=O)N[C@@H](CC(C)C)C(=O)N[C@@H]([C@@H](C)O)C(=O)N(C)CC(=O)N(C)[C@@H](Cc2ccccc2)C(=O)N[C@@H](C)C(=O)N(CC)[C@@H](Cc2ccccc2)C(=O)N[C@@H](CC(C)C)C(=O)N1C [DP-638] ([Sar]LT[Sar][NMeF]A[NEtPhe]L[NMeI][NMeL]D-Piperidide; lactam N-11) | 47 | – |
| CC(C)C[C@@H]1NC(=O)[C@H](C)N(C)C(=O)[C@H](C(C)C)N(C)C(=O)[C@H](Cc2ccccc2)NC(=O)CN(C)C(=O)[C@H]([C@@H](C)O)NC(=O)[C@@H]2CCCN2C(=O)[C@H](CC(C)C)NC(=O)[C@H](C)NC(=O)C[C@@H](C(=O)N2CCCCC2)NC(=O)[C@H](CC(C)C)N(C)C1=O [DP-32] (ALPT[Sar]F[NMeV][NMeA]L[NMeL]D-Piperidide; lactam N-11) | – | microsomal CLint at 1 uM [2]: 26 µL/min/mg |
| C=C1CCC(=O)N[C@@H](CC(C)C)C(=O)N[C@@H](C(C)C)C(=O)N(C)[C@@H](CC(C)C)C(=O)N[C@@H](Cc2ccccc2)C(=O)N(C)[C@@H](Cc2ccccc2)C(=O)N[C@@H]([C@@H](C)CC)C(=O)N(C)[C@@H](C)C(=O)N[C@@H](CC(C)C)C(=O)N[C@@H]([C@@H](C)O)C(=O)N[C@H](C(=O)N2CCCCC2)Cc2cccc1c2 [DP-890] | 47 | – |
| CC[C@H](C)[C@@H]1NC(=O)[C@H](C)NC(=O)C[C@@H](C(=O)N2CCCCC2)NC(=O)[C@@H]2CCCN2C(=O)C(CC(C)C)NC(=O)[C@H](Cc2ccccc2)N(C)C(=O)[C@H]([C@@H](C)O)NC(=O)[C@H](Cc2ccccc2)N(C)C(=O)[C@H](C)N(C)C1=O (stereo partly drawn) [DP-34] (AI[NMeA][NMeF]T[NMeF][ξL]PD-Piperidide; lactam N-9) | – | microsomal CLint at 1 uM [2]: 102 µL/min/mg |
| CC(C)C[C@H]1C(=O)N[C@@H](COC(C)(C)C)C(=O)N[C@H](C(=O)N2CCCCC2)CCC(=O)N[C@@H](C)C(=O)N(C)[C@@H](C)C(=O)N(C)[C@@H](Cc2ccccc2)C(=O)N(C)[C@@H](CC(C)C)C(=O)N[C@@H]([C@@H](C)O)C(=O)N(C)CC(=O)N1C [Compound P-121, Ala-MeAla-MePhe-MeLeu-Thr-MeGly-MeLeu-Ser(tBu)-Glu-piperidine] (A[NMeA][NMeF][NMeL]T[Sar][NMeL]S(tBu)E-Piperidide; lactam N-9) | – | Hepatic microsome CLhint (Human) In the absence of NADPH: 8 ul/min/mg Protein; Hepatic microsome CLhint (Human) In the presence of NADPH: 69 ul/min/mg Protein; microsomal CLint at 1 uM (human, liver microsomes, pH 7.4, Hepatic microsome CLhint (Human) In the presence of NADPH): 29 µL/min/mg |
| CC(C)C[C@@H]1NC(=O)[C@H](Cc2ccccc2)NC(=O)[C@H](CC(C)C)N(C)C(=O)[C@H](Cc2ccccc2)NC(=O)[C@@H](C)N(C)C(=O)C[C@@H](C(=O)N2CCCCC2)NC(=O)[C@H](Cc2ccccc2)N(C)C(=O)CNC(=O)[C@H]([C@@H](C)O)NC(=O)[C@H](CC(C)C)NC1=O [DP-486] ([dNMeA]F[NMeL]FLLTG[NMeF]D-Piperidide; lactam N-10) | 87 | – |
| CC[C@H](C)[C@H]1C(=O)N[C@H](C(=O)N2CCCCC2)CC(=O)N[C@@H](C)C(=O)N(C)[C@@H](Cc2ccccc2)C(=O)N(C)[C@@H](CC(C)C)C(=O)N[C@@H]([C@@H](C)O)C(=O)N(C)CC(=O)N(C)[C@@H](CC(C)C)C(=O)N[C@@H](COC(C)(C)C)C(=O)N1C [Compound P-123, Ala-MePhe-MeLeu-Thr-MeGly-MeLeu-Ser(tBu)-MeIle-Asp-piperidine] (A[NMeF][NMeL]T[Sar][NMeL]S(tBu)[NMeI]D-Piperidide; lactam N-9) | – | Hepatic microsome CLhint (Human) In the absence of NADPH: 0 ul/min/mg Protein; microsomal CLint at 1 uM (human, microsomes, pH 7.4, Hepatic microsome CLhint (Human) In the presence of NADPH): 106 µL/min/mg |
| CC(C)C[C@@H]1NC(=O)[C@H](CC(C)C)NC(=O)[C@H](C)N(C)C(=O)C[C@@H](C(=O)N2CCCCC2)NC(=O)[C@H](C(C)C)N(C)C(=O)[C@H](CC(C)C)NC(=O)[C@H](Cc2ccccc2)NC(=O)[C@H]([C@@H](C)O)NC(=O)[C@@H]2CCN2C(=O)[C@H](CC(C)C)NC(=O)[C@H](C)NC1=O [DP-548] ([NMeA]LLAL[Aze]TFL[NMeV]D-Piperidide; lactam N-11) | 16 | – |
| CC[C@H](C)[C@H]1C(=O)NCC(=O)N2CC[C@H]2C(=O)N[C@@H]([C@@H](C)O)C(=O)N2CCC[C@H]2C(=O)N[C@@H](Cc2ccccc2)C(=O)N[C@H](C(=O)N2CCCCC2)CC(=O)N(C)[C@@H](C)C(=O)N[C@@H](Cc2ccccc2)C(=O)N(C)[C@@H](CC(C)C)C(=O)N[C@@H](CC(C)C)C(=O)N1C [DP-556] ([NMeA]F[NMeL]L[NMeI]G[Aze]TPFD-Piperidide; lactam N-11) | 65 | – |
| CC[C@H](C)[C@@H]1NC(=O)[C@H](C)N(C)C(=O)CN(C)C(=O)C[C@@H](C(=O)N2CCCCC2)NC(=O)[C@H](CC(C)C)N(C)C(=O)[C@H](C)N(C)C(=O)[C@H](Cc2ccccc2)N(C)C(=O)[C@H]([C@@H](C)O)NC(=O)[C@H](Cc2ccccc2)N(C)C(=O)[C@H](CC(C)C)N(C)C1=O [DP-519] ([Sar][NMeA]I[NMeL][NMeF]T[NMeF][NMeA][NMeL]D-Piperidide; lactam N-10) | 157 | – |
| CC[C@H](C)[C@@H]1NC(=O)[C@H](Cc2ccccc2)NC(=O)[C@@H]2CCCN2C(=O)[C@H](CC(C)C)N(C)C(=O)[C@H](Cc2ccccc2)NC(=O)[C@H](CC(C)C)NC(=O)[C@H]([C@@H](C)O)NC(=O)[C@H](C)N(C)C(=O)[C@H](C(C)C)NC(=O)[C@H](C)NC(=O)C[C@@H](C(=O)N2CCCCC2)NC(=O)[C@H](CC(C)C)NC(=O)CN(C)C1=O [DP-21] (AV[NMeA]TLF[NMeL]PFI[Sar]LD-Piperidide; lactam N-13) | – | microsomal CLint (human, microsomes, CL NADPH(+)): 25 µL/min/mg |
| CC[C@H](C)[C@H]1C(=O)N[C@@H](C)C(=O)N[C@H](C(=O)N2CCCCC2)CC(=O)N[C@@H](C)C(=O)N[C@@H]([C@@H](C)O)C(=O)N(C)[C@@H](CC(C)C)C(=O)N[C@@H](CC(C)C)C(=O)N[C@@H](Cc2ccccc2)C(=O)N2CCC[C@H]2C(=O)N[C@@H](Cc2ccccc2)C(=O)N[C@@H](C(C)C)C(=O)N(C)CC(=O)N1C [DP-6] (AT[NMeL]LFPFV[Sar][NMeI]AD-Piperidide; lactam N-12) | – | microsomal CLint at 1 uM [2]: 35 µL/min/mg |
| C=C1CCC(=O)N[C@@H](CC(C)C)C(=O)N(C)[C@@H](CC(C)C)C(=O)N(C)[C@@H](Cc2ccccc2)C(=O)N[C@@H](C)C(=O)N(C)[C@@H](Cc2ccccc2)C(=O)N(C)[C@@H]([C@@H](C)CC)C(=O)N[C@@H]([C@@H](C)O)C(=O)N(C)CC(=O)N(C)[C@@H](CC(C)C)C(=O)N[C@H](C(=O)N2CCCCC2)Cc2ccc1cc2 [DP-854] | 252 | – |
